Reference: patent US20220381772A1, “SYSTEMS AND METHODS FOR EVALUATING NK CELLS” (The Regents of The University of California, priority 2019, published 2022)
“Also recorded” adds a separate entry of the source.

B1: rhIFN-γ: recombinant human IFN-γ from Biolegend (protein, UniProt P01579 24-161, looked up)
Interferon gamma: QDPYVKEAENLKKYFNAGHSDVADNGTLFLGILKNWKEESDRKIMQSQIVSFYFKLFKNFKDDQSIQKSVETIKEDMNVKFFNSNKKKRDDFEKLTNYSVTDLNVQRKAIHELIQVMAELSPAAKTGKRKRSQMLFRG

How the values were obtained:
Assay type in all cases: cell-based, human
[1] = tested on: OSCCs; experiment: Chemo-drug induced cell death, propidium iodide staining and flow cytometry; conditions: patient-derived differentiated OSCCs
Procedure: (§1) OSCCs or OSCSCs were seeded at 1×10^5 cells/well in 24-well plate for 24 h prior to the addition of highly purified NK cells pre-treated with IL-2 (1000 units/ml) for 24 h. NK cells were added to tumor cells at 2:1 effector to target ratio. At time 0 when NK cells were added to the tumor culture, a final concentration of 10 μg/ml of propidium iodide (PI) was also added. The cells were then subsequently tracked for over 72 h using time-lapse microscopy with Nikon Eclipse Ti-E inverted microscope fitted with a culture chamber to provide cells with a stable temperature of 37° C. with 5% CO2. An image was taken every 15 min and a representation is shown at day 1, day 1½, and day 3. OSCSCs but not OSCCs which are lysed take up PI and appear orange in the time-lapse (A). NK cells were left untreated or treated with IL-2 (1000 units/ml), anti-CD16 mAb (3 μg/ml), or a combination of IL-2 (1000 units/ml) and anti-CD16 mAb (3 μg/ml) for 18 h before they were added to ^51Cr-labeled OSCSCs and OSCCs. NK cell-mediated cytotoxicity was determined using a standard 4 h ^51Cr release assay and the lytic units 30/10^6 cells were determined using inverse number of NK cells required to lyse 30% of the target cells×100 (B). NK cells were treated as described in (B) and each NK sample was either cultured in the absence or presence of OSCSCs and OSCCs at an NK cell to target cell ratio of 0.5:1. After an overnight incubation, the supernatants were removed from the co-cultures and the levels of IFN-γ secretion were determined using specific ELISAs. One of minimum three representative experiments is shown in each of (C). The surface expression of MHC class I and CD44 on OSCCs and OSCSCs were assessed with flow cytometric analysis after staining with the respective PE-conjugated antibodies. Isotype control antibodies were used as control. The numbers on the right hand corner are the percentages and the mean channel fluorescence intensities for each histogram (D). The surface expression of CD338 on OSCCs and OSCSCs was assessed by flow cytometric analysis after staining with PE-conjugated CD338 (right graphs in the histogram). Isotype control antibodies were used as control (left graphs in the histograms) (E). OSCCs and OSCSCs were left untreated or treated with 10-80 μg/ml of cisplatin for 18 h, after which the tumor cells were washed with 1×PBS, detached, and stained with propidium iodide (PI) and percent cell death was determined using flow cytometric analysis (F).

[2] = tested on: OSCSCs; experiment: as above
Procedure: as §1

[3] = tested on: NK-supernatant differentiated MP2 tumors; experiment: Paclitaxel-induced cell death, propidium iodide staining; conditions: for cell death: MP2 differentiated with NK-supernatants 5 days, paclitaxel 10 nM to 600 nM, 18-24 h
Procedure: (§2) The viability of cells was determined by staining with propidium iodide (n=3/each experimental condition).

[4] = tested on: PL12 tumors; experiment: as above; conditions: for cell death: well-differentiated PL12, compared with MP2, 18-20 hours
Procedure: (§3) P-values of <0.05 were obtained for differences between MP2 vs. PL12 and Capan at the concentrations of 10 nM, 200 nM, 600 nM, 1000 nM and […] of Paclitaxel (n=2 per each experimental condition).

[5] = tested on: MP2 tumors; experiment: as above; conditions: for cell death: poorly differentiated MP2, 18-20 hours
Procedure: as §3, §2

[6] = tested on: Capan tumors; experiment: as above
Procedure: as §3

[7] = tested on: MP2 tumors; experiment: Surface expression of CD44, CD54, MHC-class I and B7H1, flow cytometry; conditions: rhIFN-γ 200 U/mL, 24 h
Procedure: (§4) Freshly isolated NK cells were left untreated or treated with IL-2 (1000 U/mL) or the combination of anti-CD16 mAb (3 μg/mL) and IL-2 (1000 U/mL) for 18 h before they were used in co-cultures with ^51Cr labeled MP2, and PL12. NK cell-mediated cytotoxicity was determined using 4-hour ^51Cr release assay, and the lytic units 30/10^6 cells were determined using inverse number of NK cells required to lyse 30% of the target cells×100 (n=5 independent experiments). (FIG. 25A). Cells were left untreated or treated with rhTNF-α (20 ng/mL), rhIFN-γ (200 U/mL) or the combination of rhTNF-α (20 ng/mL) and […] (200 U/mL) for 24 h. Afterwards, the cells were detached and the surface expression of CD44, CD54, MHC-class I and B7H1 were assessed using staining with PE conjugated antibodies followed by flow cytometric analysis. Isotype control antibodies were used as controls (FIG. 25B) MP2 and Capan cells were treated as described in FIG. 25A, and were detached from the tissue culture plates, labeled with ^51Cr and used in a standard 4-hour ^51Cr release assay using IL-2 (1000 U/mL) treated NK cells. Pre-treatment of NK cells with IL-2 (1000 U/mL) were carried out for 18-24 h. Percent cytotoxicity was determined at different effector to target ratio and the lytic units 30/10^6 cells were determined using inverse number of NK cells required to lyse 30% of the tumor cells×100 (FIG. 25C).

[8] = tested on: MP2; experiment: Resistance to NK cell mediated cytotoxicity after cytokine treatment, 4-hour 51Cr release assay; conditions: rhTNF-α 20 ng/mL or rhIFN-γ 200 U/mL; IL-2 treated NK cells
Procedure: as §4

[9] = stem-like/poorly differentiated OSCSCs, cisplatin 10-80 μg/ml for 18 h in FIG. 1F

Molecule	cell death [1]	cell death ([2]; NK-differentiated OSCSCs)	cell death [2, 9]	cell death [3]	cell death [4]	cell death [5]	also measured
N.N.[Cl][Pt][Cl] [CDDP, cis-dichlorodiammineplatinum]	higher cell death	higher cell death	not susceptible to CDDP induced cell death; also recorded: minimal effects	killed	killed	resistant	–
CC(=O)N[C@@H](CS)C(=O)O [NAC, N-Acetyl Cysteine]	–	–	–	–	–	–	paclitaxel mediated cell death on addition of NAC ([3]; NAC (20 nM) 24 h, followed by paclitaxel 10 nM to 600 nM): increased cell death; also recorded: increased paclitaxel mediated death; paclitaxel mediated cell death on addition of NAC ([6]; NAC then paclitaxel): increased paclitaxel mediated cell death; paclitaxel mediated cell death on addition of NAC ([4]; NAC then paclitaxel): increased paclitaxel mediated cell death; paclitaxel mediated cell death on addition of NAC ([5]; NAC (20 nM) 24 h, followed by paclitaxel): increased paclitaxel mediated cell death
CC(=O)O[C@H]1C(=O)[C@@]2(C)[C@H]([C@H](OC(=O)c3ccccc3)[C@]3(O)C[C@H](OC(=O)[C@H](O)[C@@H](NC(=O)c4ccccc4)c4ccccc4)C(C)=C1C3(C)C)[C@]1(OC(C)=O)CO[C@@H]1C[C@@H]2O [paclitaxel]	higher cell death	higher cell death	minimal effects	higher induction of cell death; also recorded: killed	much higher levels of cell death; also recorded: higher induction of cell death; also recorded: killed	resistant	cell death ([6]; well-differentiated Capan, compared with MP2, 18-20 hours): much higher levels of cell death; also recorded: higher induction of cell death
rhIFN-γ: recombinant human IFN-γ from Biolegend	–	–	–	–	–	–	surface expression of B7H1 [7]: able to upregulate B7H1; surface expression of CD44, CD54, MHC-class I and B7H1 ([7]; rhTNF-α 20 ng/mL): increase surface expression of CD54 and MHC-class I
B1	–	–	–	–	–	–	resistance against NK cell mediated cytotoxicity [8]: significant resistance
